US20210255193A1, “LYSINE REACTIVE PROBES AND USES THEREOF” (The Scripps Research Institute, priority 2017, published 2021)
One block for each molecule: values may come before it.

Legend:
Test in all cases: competitive isoTOP-ABPP
Type in all cases: binding
[1] = biological target: T1, MAP1LC3B Microtubule-associated proteins 1A/1B light chain (Homo sapiens, UniProt Q9GZQ8); set-up: key to isoTOP-ABPP reactivity ratio at lysine Q9GZQ8_K51: R = MS1 peak area ratio, DMSO (heavy) / compound-treated (light); conditions: for isoTOP-ABPP ratio, lysine Q9GZQ8_K51: 50 uM_231_sol_in vitro; for isoTOP-ABPP ratio (R) at liganded lysine Q9GZQ8_K51: sol, 231
T1 construct: isoTOP-ABPP experiments performed in cell lysates (in vitro); endogenous in cells; host or cells: soluble proteome of human cancer cell lines (MDA-MB-231; Ramos and Jurkat also prepared)
Description: (§1) In vitro covalent fragment treatment for isoTOP-ABPP. All compounds were made up as solutions in DMSO (100×) and were used at a final concentration of 50 μM for activated esters and 100 μM for guanidinylating agents. For each profiling sample, 0.5 ml of lysate was treated with 5 μl of the 100× compound stock solution or 5 μl of DMSO. Samples were treated with activated esters for
(§2) STP-alkyne labeling and click chemistry. For concentration-dependent reactivity measurements by isoTOP-ABPP, 0.5 ml proteome aliquots were treated at ambient temperature with 1 mM STP-alkyne 1 (5 μl of 100 mM stock in DMSO) and 0.1 mM STP alkyne 1 (5 μl of 10 mM stock in DMSO), respectively. For competitive isoTOP-ABPP, after in vitro fragment treatment (detailed above), the samples were labeled for 1 h at ambient temperature with 0.1 mM STP-alkyne 1 (5 μl of 10 mM stock in DMSO). Samples were conjugated by copper-mediated azide-alkyne cycloaddition (CuAAC) to either the light (1 mM STP-alkyne or fragment treated) or heavy (0.1 mM STP-alkyne or DMSO treated) TEV tags (10 μl of 5 mM stocks in DMSO, final concentration=100 μM) using tris(2-carboxyethyl)phosphine hydrochloride
(§3) R value calculation and processing. The ratios of light and heavy MS1 peaks for each unique peptide were quantified with a CIMAGE software using default parameters (3 MS1 acquisitions per peak and signal to noise threshold set to 2.5). For reactivity measurements by isoTOP-ABPP, the R value was calculated from the ratio of MS1 peak areas, comparing the 1 mM STP alkyne sample (light TEV tag) with the 0.1 mM STP alkyne sample (heavy TEV tag). For competitive isoTOP-ABPP, the R value was calculated from the ratio of MS1 peak areas, comparing the DMSO treated sample (heavy TEV tag) with the compound treated sample (light TEV tag). […] Ratios for unique peptide entries are calculated for each experiment; overlapping peptides with the same modified lysine (for example, different charge states, MudPIT chromatographic steps or tryptic termini) are grouped together and the median ratio is reported as the final ratio (R). The peptide ratios reported by CIMAGE were further filtered to ensure the removal or correction of low-quality ratios in each individual data set. The quality filters applied were the following: removal of half tryptic peptides; for ratios with high standard deviations from the median (90% of the median or above) the lowest ratio was taken instead of the median; removal of peptides with R=20 and only a single MS2 event triggered during the elution of the parent ion; manual annotation of all the peptides with ratios of 20, removing any peptides with low quality elution profiles that remained after the previous curation steps (only done for competitive isoTOP-ABPP).
(§4) Cross-data processing for fragment screening. For compound treated samples, biological replicates of the same condition were averaged, if the standard deviation was below 60% of the mean; otherwise, for lysines with at least one R value <4 for a particular compound, the lowest value of the ratio set was taken. For lysines, where all R values for a particular compound were ≥4, the average was reported. For peptides containing several possible modified lysines, the lysine with the highest number of quantification events was used for analysis and the remaining, redundant peptides were reported as alternative modification sites. Peptides included in the aggregate dataset (those used for further bioinformatics and statistical analyses) were required to have been quantified in 2 experiments for competitive isoTOP-ABPP. Lysines were categorized as liganded, if they had at least one ratio R≥4 (hit fragments). For liganded lysines with R=20 for all liganding events, lysines were required to have been quantified with R=20 in two separate experiments and were further required to have been quantified with R<20 in one additional experiment.

[2] = biological target: T2, CPOX Coproporphyrinogen-III oxidase, mitochondrial (Homo sapiens, UniProt P36551); set-up: key to isoTOP-ABPP reactivity ratio at lysine P36551_K404: R = MS1 peak area ratio, DMSO (heavy) / compound-treated (light); conditions: for isoTOP-ABPP ratio, lysine P36551_K404: 50 uM_231_sol_in vitro; for R value (DMSO/fragment) for probe 1 labeling: P36551_K404; for isoTOP-ABPP ratio (R) at liganded lysine P36551_K404: sol, 231
T2 construct: isoTOP-ABPP experiments performed in cell lysates (in vitro); endogenous in cells; host or cells: soluble proteome of human cancer cell lines (MDA-MB-231; Ramos and Jurkat also prepared)
T2 sequence (P36551 111-454): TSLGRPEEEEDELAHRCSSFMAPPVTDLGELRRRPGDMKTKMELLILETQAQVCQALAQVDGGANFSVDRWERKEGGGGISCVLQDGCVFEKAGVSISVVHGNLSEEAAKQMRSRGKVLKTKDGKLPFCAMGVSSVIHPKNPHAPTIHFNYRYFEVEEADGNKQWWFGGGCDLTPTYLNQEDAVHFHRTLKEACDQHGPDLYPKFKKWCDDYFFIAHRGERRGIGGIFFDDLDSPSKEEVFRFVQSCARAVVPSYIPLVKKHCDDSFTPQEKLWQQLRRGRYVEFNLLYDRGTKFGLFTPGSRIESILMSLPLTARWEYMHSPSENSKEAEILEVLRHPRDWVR
Description: as §1, §2, §3, §4

[3] = biological target: T3, ISOC2 Isochorismatase domain-containing protein 2, mitochondrial (Homo sapiens, UniProt Q96AB3); set-up: key to isoTOP-ABPP reactivity ratio at lysine Q96AB3_K178: R = MS1 peak area ratio, DMSO (heavy) / compound-treated (light); capped at 20; conditions: for isoTOP-ABPP ratio, lysine Q96AB3_K178: 50 uM_231_sol_in vitro; for R value (DMSO/fragment) for probe 1 labeling: Q96AB3_K178; for isoTOP-ABPP ratio (R) at liganded lysine Q96AB3_K178: sol, 231
T3 construct: isoTOP-ABPP experiments performed in cell lysates (in vitro); endogenous in cells; host or cells: soluble proteome of human cancer cell lines (MDA-MB-231; Ramos and Jurkat also prepared)
T3 sequence (Q96AB3 1-205): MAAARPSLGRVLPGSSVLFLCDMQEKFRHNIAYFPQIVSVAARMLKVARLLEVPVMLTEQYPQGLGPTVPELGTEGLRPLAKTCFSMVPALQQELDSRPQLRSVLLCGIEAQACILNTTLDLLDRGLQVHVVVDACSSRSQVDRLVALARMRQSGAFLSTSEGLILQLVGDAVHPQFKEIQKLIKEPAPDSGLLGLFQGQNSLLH
Description: as §1, §2, §3, §4

[4] = biological target: T4, TPMT Thiopurine S-methyltransferase (Homo sapiens, UniProt P51580); set-up: key to isoTOP-ABPP reactivity ratio at lysine P51580_K32: R = MS1 peak area ratio, DMSO (heavy) / compound-treated (light); conditions: for isoTOP-ABPP ratio, lysine P51580_K32: 50 uM_231_sol_in vitro; for R value (DMSO/fragment) for probe 1 labeling: P51580_K32; for isoTOP-ABPP ratio (R) at liganded lysine P51580_K32: sol, 231
T4 construct: isoTOP-ABPP experiments performed in cell lysates (in vitro); endogenous in cells; host or cells: soluble proteome of human cancer cell lines (MDA-MB-231; Ramos and Jurkat also prepared)
T4 sequence (P51580 1-245): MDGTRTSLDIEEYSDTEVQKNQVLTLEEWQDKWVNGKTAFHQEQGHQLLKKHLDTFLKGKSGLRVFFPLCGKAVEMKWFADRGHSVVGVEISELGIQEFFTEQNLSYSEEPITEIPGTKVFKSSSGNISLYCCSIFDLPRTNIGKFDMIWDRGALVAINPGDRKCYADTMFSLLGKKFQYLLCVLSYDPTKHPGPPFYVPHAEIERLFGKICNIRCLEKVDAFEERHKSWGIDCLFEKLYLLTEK
Description: as §1, §2, §3, §4

SMILES: O=C(Oc1ccc([N+](=O)[O-])cc1[N+](=O)[O-])C(c1ccccc1)(c1ccccc1)c1ccccc1 [fragment 42, 2,4-Dinitrophenyl 2,2,2-triphenylacetate]
- isoTOP-ABPP ratio (R) at liganded lysine Q9GZQ8_K51 ([1]; 50 uM, in vitro): 0.9
- isoTOP-ABPP ratio (R) at liganded lysine P36551_K404 ([2]; 50 uM, in vitro): 1.0
- isoTOP-ABPP ratio (R) at liganded lysine Q96AB3_K178 ([3]; 50 uM, in vitro): 1.0
- isoTOP-ABPP ratio (R) at liganded lysine P51580_K32 ([4]; 50 uM, in vitro): 0.9

SMILES: CC(C)(C)OC(=O)NCCCC(=O)Oc1ccc([N+](=O)[O-])cc1[N+](=O)[O-] [fragment 41, 2,4-Dinitrophenyl 4-((tert-butoxycarbonyl)amino)butanoate]
- isoTOP-ABPP ratio (R) at liganded lysine Q9GZQ8_K51 ([1]; 50 uM, in vitro): 0.9
- isoTOP-ABPP ratio (R) at liganded lysine P36551_K404 ([2]; 50 uM, in vitro): 1.0
- isoTOP-ABPP ratio (R) at liganded lysine Q96AB3_K178 ([3]; 50 uM, in vitro): 1.9
- isoTOP-ABPP ratio (R) at liganded lysine P51580_K32 ([4]; 50 uM, in vitro): 1.5

SMILES: O=C(Oc1ccc([N+](=O)[O-])cc1[N+](=O)[O-])C1CCN(C(=O)OCc2ccccc2)CC1 [fragment 34, 1-Benzyl 4-(2,4-dinitrophenyl) piperidine-1,4-dicarboxylate]
- isoTOP-ABPP ratio (R) at liganded lysine Q9GZQ8_K51 ([1]; 50 uM, in vitro): 1.0
- isoTOP-ABPP ratio (R) at liganded lysine P36551_K404 ([2]; 50 uM, in vitro): 1.1
- isoTOP-ABPP ratio (R) at liganded lysine Q96AB3_K178 ([3]; 50 uM, in vitro): 1.1
- isoTOP-ABPP ratio (R) at liganded lysine P51580_K32 ([4]; 50 uM, in vitro): 1.6

SMILES: O=C(CCc1cn(-c2ccccc2)nc1-c1ccccc1)Oc1ccc([N+](=O)[O-])cc1[N+](=O)[O-] [fragment 29, 2,4-Dinitrophenyl 3-(1,3-diphenyl-1H-pyrazol-4-yl)propanoate]
- isoTOP-ABPP reactivity ratio at lysine Q9GZQ8_K51 ([1]; 50 uM, 231 sol, in vitro): 0.8
- isoTOP-ABPP reactivity ratio at lysine P36551_K404 ([2]; 50 uM, 231 sol, in vitro): 18.1
- isoTOP-ABPP reactivity ratio at lysine Q96AB3_K178 ([3]; 50 uM, 231 sol, in vitro): 1.7
- isoTOP-ABPP reactivity ratio at lysine P51580_K32 ([4]; 50 uM, 231 sol, in vitro): 1.4

More lines, now with the values ahead:

- isoTOP-ABPP ratio, lysine Q9GZQ8_K51 [1]: 0.8
- isoTOP-ABPP ratio, lysine P36551_K404 [2]: 1.0
- isoTOP-ABPP ratio, lysine Q96AB3_K178 [3]: 0.9
- isoTOP-ABPP ratio, lysine P51580_K32 [4]: 4.4
SMILES: O=C(Oc1c(F)c(F)cc(F)c1F)c1cc(C(F)(F)F)cc(C(F)(F)F)c1 [fragment 48, 2,3,5,6-Tetrafluorophenyl 3,5-bis(trifluoromethyl)benzoate]

- R value (DMSO/fragment) for probe 1 labeling ([1]; Q9GZQ8_K51, 50 uM, 231 sol, in vitro): 1.0
- R value (DMSO/fragment) for probe 1 labeling ([2]; 50 uM, 231 sol, in vitro): 10.8
- R value (DMSO/fragment) for probe 1 labeling ([3]; 50 uM, 231 sol, in vitro): 1.2
- R value (DMSO/fragment) for probe 1 labeling ([4]; 50 uM, 231 sol, in vitro): 1.3
SMILES: O=C(CCc1cn(-c2ccccc2)nc1-c1ccccc1)Oc1c(F)c(F)c(F)c(F)c1F [fragment 19, Pentafluorophenyl 3-(1,3-diphenyl-1H-pyrazol-4-yl)propanoate]

- R value (DMSO/fragment) for probe 1 labeling ([2]; 50 uM, 231 sol, in vitro): 1.0
- R value (DMSO/fragment) for probe 1 labeling ([3]; 50 uM, 231 sol, in vitro): 1.0
- R value (DMSO/fragment) for probe 1 labeling ([4]; 50 uM, 231 sol, in vitro): 4.9
SMILES: O=C(Oc1c(F)c(F)c(F)c(F)c1F)c1cc(C(F)(F)F)cc(C(F)(F)F)c1 [fragment 21, Pentafluorophenyl 3,5-bis(trifluoromethyl)benzoate]

- isoTOP-ABPP ratio, lysine Q9GZQ8_K51 [1]: 0.9
- isoTOP-ABPP ratio, lysine P36551_K404 [2]: 1.5
- isoTOP-ABPP ratio, lysine Q96AB3_K178 [3]: 1.2
- isoTOP-ABPP ratio, lysine P51580_K32 [4]: 9.5
SMILES: O=C(Oc1c(F)c(F)c(C(F)(F)F)c(F)c1F)c1cc(C(F)(F)F)cc(C(F)(F)F)c1 [fragment 47, 2,3,5,6-Tetrafluoro-4-(trifluoromethyl)phenyl 3,5-bis(trifluoromethyl)benzoate]
